What was measured:
[1] = target: T1, WRN helicase (aa N517-P1238) (Homo sapiens, UniProt Q14191); experiment: WRN ATPase assay (DNA dependent ATP hydrolysis, ADP-Glo); format: biochemical; conditions: 3 hours pre-incubation, 300 micromolar ATP, FLAP26 DNA; geometric mean of at least 2
T1 construct: The core helicase motif of the WRN protein (aa N517-P1238) was produced for this assay; His (N); ZZ (N); 3C protease cleavage site (N); made in house; host or cells: Sf21 insect cells (baculovirus; virus and BIICs made in SF9)
Text: An ATPase assay was set up to measure the DNA dependent ATP hydrolysis activity of WRN helicase. This assay was used also to assess the inhibition properties of compounds of the invention on DNA dependent WRN ATPase activity.
The core helicase motif of the WRN protein (aa N517-P1238) was produced for this assay (protein production as described above). […] The ADP-Glo assay kit (Promega, Madison, WI) allowing the quantification of ADP produced in ATP hydrolysis reactions was used for setting up this assay.
Time course experiments were first performed in order to determine the best enzymatic assay conditions (including buffer conditions, reaction time and concentrations of protein, ATP and DNA substrates). A typical reaction consists of 10 nM WRN protein, 0.2 nM FLAP26, and 300 micromolar ATP in the following assay buffer: 30 mM Tris pH7.5, 2 mM MgCl2, 0.02% BSA, 50 mM NaCl, 0.1% pluronic F127 prepared in DNAse free water.
To evaluate the inhibition properties of compounds of the invention, serial dilutions were prepared in DMSO (10 half log dilutions from a 10 mM DMSO solution). […] The reaction was stopped with the addition of 5 microliters of the first ADP-Glo reagent and incubated for one hour to remove the excess amount of ATP. Afterwards, 10 microliters of ATP detection reagent was added and incubated for an additional hour before reading. Luminescence output was recorded using Tecan 1000 reader, with 5 minutes delay before reading. Each concentration of compound was tested in duplicates in the assay plate.
Following normalization of activity values for the wells to % inhibition (% inhibition=[(high control-sample)/(high control-low control)]×100), IC50 fitting was carried out from the duplicate determinations present on each plate according to [4]. Data analysis can also be carried out using commercially available software designed to derive IC50 values using 4-parameter fits (e.g. GraphPad Prism, XL fit). The reported IC50 values are the geometrical means of at least 2 independent replicates.

SW48 cells = experiment: Proliferation assay SW48 (CellTiterGlo); format: cell-based; conditions: Homo sapiens, SW48, 96 h, SW48 colon carcinoma cells, 96 hours, CellTiterGlo; geometric mean of at least 2; read-out: Proliferation Assay SW48 GI50
Text: (§1) The colon carcinoma cell lines SW48 (RRID: CVCL_1724), HCT 116 (RRID: CVCL_0291) and SNU-407 (RRID: CVCL_5058) were obtained from ATCC. The WRN-knockdown insensitive colon carcinoma cell line DLD-1 (RRID: CVCL_0248) was obtained from the Korean Cell Line Bank (KCLB), and used to generate a derivative in which the endogenous WRN gene copies were knocked out by CRISPR-mediated editing using standard CRISPR methods. The resulting cell line, DLD1-WRN-KO, was used to assess potential off-target compound effects.
SW48, SNU-407 and DLD1-WRN-KO cells were cultured in growth medium composed of RPMI-1640 (Amimed Cat #1-41F22-1), 2 mM L-Glutamine (Amimed Cat #5-10K50), 10 mM HEPES (Gibco Cat #15630-056), 1 mM sodium pyruvate (Amimed Cat #5-60F00-H), 1× Penicillin-Streptomycin (Amimed Cat #4-01F00-H) and 10% fetal calf serum (Amimed Cat #2-01F30-G, Lot #LB11566P). HCT 116 cells were cultured in growth medium composed of McCoys 5A (Amimed catalog #1-18F01-1), 2 mM L-Glutamine (Amimed Cat #5-10K50), 1× Penicillin-Streptomycin (Amimed Cat #4-01F00-H) and 10% fetal calf serum (Amimed Cat #2-01F30-G, Lot #LB11566P). All cells were maintained at 37° C. in a humidified 5% CO2 incubator.
Following filtration through a Steriflip-NY 20 μm filter (Millipore Cat #SCNY00020), trypsinized cells were seeded in 100 microliters growth medium at 2,000 (SW48) or 1,500 (SNU-407, DLD1-WRN-KO, HCT 116) cells/well into white, clear-bottom 96-well plates (Costar Cat #3903). Three replicate plates were prepared for each compound treatment condition. In addition, one plate (termed “day 0”) was prepared to quantify the number of viable cells at the time of compound addition. Following overnight incubation at 37° C. in a humidified 5% CO2 atmosphere, eight 3-fold serial dilutions of a given compound stock (obtained at a concentration of 10 mM in DMSO and stored at 4° C.) were dispensed directly into each of the triplicate assay plates using a HP 300D non-contact Digital Dispenser (TECAN). The final concentration of DMSO was normalized to 0.1% in all wells. 96 hours after compound addition, cellular ATP levels as a surrogate for cell viability was assessed following addition of 50 microliters CellTiterGlo (Promega Cat #G7573) reagent and luminescence quantification on a MPLEX multi-mode plate-reader (TECAN) following a 10 minute incubation at room temperature. The number of viable cells in the “day 0” plate were quantified identically on the day of compound addition.
For data analysis, the assay background signal that was determined in wells containing medium, but no cells, was subtracted from all other data points prior to further calculations. The extent of growth inhibition and potential cell kill was assessed by comparing the ATP levels (measured using CellTiterGlo, Promega) in compound-treated cells with those present at the time of compound addition. To this end, the following conditional concept was programmatically applied in HELIOS, an in-house software applying a multi-step decision tree to arrive at optimal concentration response curve fits (Gubler et al, SLAS DOI: 10.1177/2472555217752140) to calculate % growth (% G) for each compound-treated well: % G=(T−V0)/V0))*100 when T<V0, and % G=(T−V0)/(V−V0)))*100 when T≥V0, where V0 is the viability level at time of compound addition, while V and T represent vehicle-control and compound-treated viability levels, respectively, at the end of the compound incubation. 100%, 0% and −100% signify absence of growth inhibition, growth stasis, and complete cell kill, respectively. Compound concentrations leading to half-maximal growth inhibition (GI50) and residual cell viability at the highest tested compound concentration (Data (cmax), expressed in percent) were routinely calculated. Data analysis can also be carried out using commercially available software designed to derive IC50 values using 4-parameter fits (e.g. GraphPad Prism, XL fit). […]

DLD1-WRN-KO cells = experiment: Proliferation assay DLD1-WRN-KO (CellTiterGlo, off-target effects); format: cell-based; conditions: 96 hours, geometric mean of at least 2
Description: as §1, with “The” for “The colon carcinoma cell lines SW48 (RRID: CVCL_1724), HCT 116 (RRID: CVCL_0291) and SNU-407 (RRID: CVCL_5058) were obtained from ATCC. The”, “effects. […]” for “effects.”
Three replicate plates were prepared for each compound treatment condition. In addition, one plate (termed “day 0”) was prepared to quantify the number of viable cells at the time of compound addition. Following overnight incubation at 37° C. in a humidified 5% CO2 atmosphere, eight 3-fold serial dilutions of a given compound stock (obtained at a concentration of 10 mM in DMSO and stored at 4° C.) were dispensed directly into each of the triplicate assay plates using a HP 300D non-contact Digital Dispenser (TECAN). The final concentration of DMSO was normalized to 0.1% in all wells. 96 hours after compound addition, cellular ATP levels as a surrogate for cell viability was assessed following addition of 50 microliters CellTiterGlo (Promega Cat #G7573) reagent and luminescence quantification on a MPLEX multi-mode plate-reader (TECAN) following a 10 minute incubation at room temperature. The number of viable cells in the “day 0” plate were quantified identically on the day of compound addition.
For data analysis, the assay background signal that was determined in wells containing medium, but no cells, was subtracted from all other data points prior to further calculations. The extent of growth inhibition and potential cell kill was assessed by comparing the ATP levels (measured using CellTiterGlo, Promega) in compound-treated cells with those present at the time of compound addition. […] 100%, 0% and −100% signify absence of growth inhibition, growth stasis, and complete cell kill, respectively. Compound concentrations leading to half-maximal growth inhibition (GI50) and residual cell viability at the highest tested compound concentration (Data (cmax), expressed in percent) were routinely calculated. Data analysis can also be carried out using commercially available software designed to derive IC50 values using 4-parameter fits (e.g. GraphPad Prism, XL fit). The reported GI50 values are the geometrical means of at least 2 independent replicates.

T1 sequence (Q14191 517-1238): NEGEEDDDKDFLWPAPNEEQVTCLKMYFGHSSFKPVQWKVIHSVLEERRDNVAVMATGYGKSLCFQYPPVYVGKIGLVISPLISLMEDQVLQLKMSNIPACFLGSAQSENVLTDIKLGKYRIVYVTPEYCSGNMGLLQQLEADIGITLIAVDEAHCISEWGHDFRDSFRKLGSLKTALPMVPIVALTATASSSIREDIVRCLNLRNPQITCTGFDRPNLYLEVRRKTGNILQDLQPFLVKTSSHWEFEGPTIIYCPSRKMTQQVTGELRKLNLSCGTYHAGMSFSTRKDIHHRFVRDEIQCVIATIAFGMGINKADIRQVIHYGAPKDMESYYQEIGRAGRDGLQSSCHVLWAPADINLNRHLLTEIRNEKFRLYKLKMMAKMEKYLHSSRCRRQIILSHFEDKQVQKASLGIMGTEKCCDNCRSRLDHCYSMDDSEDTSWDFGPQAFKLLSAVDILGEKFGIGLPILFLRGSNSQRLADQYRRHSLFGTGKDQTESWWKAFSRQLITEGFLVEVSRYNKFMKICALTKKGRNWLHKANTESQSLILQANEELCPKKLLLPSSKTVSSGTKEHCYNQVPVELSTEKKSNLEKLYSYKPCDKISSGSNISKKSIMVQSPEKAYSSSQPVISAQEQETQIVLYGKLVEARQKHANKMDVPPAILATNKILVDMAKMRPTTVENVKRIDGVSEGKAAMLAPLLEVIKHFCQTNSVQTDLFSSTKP

| IC50 [1] [nM] | GI50 (SW48 cells) [µM] | GI50 (DLD1-WRN-KO cells) [µM] | Structure (SMILES) |
| --- | --- | --- | --- |
| 700 | 9 | > 10 | COC1CCN(c2nc3n(CC(=O)Nc4ccc(C(F)(F)F)cc4)c(C)c(N4CCN(C(C)=O)CC4)c(=O)n3n2)CC1 [Example 123, 2-(6-(4-acetylpiperazin-1-yl)-2-(4-methoxypiperidin-1-yl)-5-methyl-7-oxo-[1,2,4]triazolo[1,5-a]pyrimidin-4(7H)-yl)-N-(4-(trifluoromethyl)phenyl)acetamide] |
| 600 | 3 | > 10 | CC(=O)N1CCN(c2c(C)n(CC(=O)Nc3cc(C)c(C(F)(F)F)cc3Cl)c3nc(C4=CCOCC4)nn3c2=O)CC1 [Example 89, 2-(6-(4-acetylpiperazin-1-yl)-2-(3,6-dihydro-2H-pyran-4-yl)-5-methyl-7-oxo-[1,2,4]triazolo[1,5-a]pyrimidin-4(7H)-yl)-N-(2-chloro-5-methyl-4-(trifluoromethyl)phenyl)acetamide] |
| 100 | 2 | > 10 | COc1cccc(C(=O)N2CCN(c3c(C)n(CC(=O)Nc4ccc(C(F)(F)F)cc4)c4nc(C5=CCOCC5)nn4c3=O)CC2)c1N [Example 155, 2-(6-(4-(2-amino-3-methoxybenzoyl)piperazin-1-yl)-2-(3,6-dihydro-2H-pyran-4-yl)-5-methyl-7-oxo-[1,2,4]triazolo[1,5-a]pyrimidin-4(7H)-yl)-N-(4-(trifluoromethyl)phenyl)acetamide] |

Further lines, the compound ahead of its results:

| Structure (SMILES) | IC50 [1] [nM] | GI50 (SW48 cells) [µM] | GI50 (DLD1-WRN-KO cells) [µM] |
| --- | --- | --- | --- |
| COC(=O)N1CCN(c2nc3n(CC(=O)Nc4ccc(S(F)(F)(F)(F)F)cc4)c(C)c(N4CCN(C(C)=O)CC4)c(=O)n3n2)CC1 [Example 81, methyl 4-(6-(4-acetylpiperazin-1-yl)-5-methyl-7-oxo-4-(2-oxo-2-((4-(pentafluoro-l6-sulfaneyl)phenyl)amino)ethyl)-4,7-dihydro-[1,2,4]triazolo[1,5-a]pyrimidin-2-yl)piperazine-1-carboxylate] | 300 | 4 | > 10 |
| CCc1c(N2CCN(C(=O)CN)CC2)c(=O)n2nc(C3=CCC(OC)CC3)nc2n1CC(=O)Nc1ccc(C(F)(F)F)cc1 (stereo not drawn) [Example 33, 2-(5-ethyl-6-(4-glycylpiperazin-1-yl)-2-(4-methoxycyclohex-1-en-1-yl)-7-oxo-[1,2,4]triazolo[1,5-a]pyrimidin-4(7H)-yl)-N-(4-(trifluoromethyl)phenyl)acetamide] | 1000 | 8 | > 10 |
| CCc1c(N2CCN(C(C)=O)CC2)c(=O)n2nc(C3=CCC(OC)CC3)nc2n1CC(=O)Nc1ccc(C(F)(F)F)cc1 (stereo not drawn) [Example 55, 2-(6-(4-acetylpiperazin-1-yl)-5-ethyl-2-(4-methoxycyclohex-1-en-1-yl)-7-oxo-[1,2,4]triazolo[1,5-a]pyrimidin-4(7H)-yl)-N-(4-(trifluoromethyl)phenyl)acetamide] | 100 | 0.8 | > 10 |
| Cc1cccc(O)c1C(=O)N1CCN(c2c(C)n(CC(=O)Nc3ccc(C(F)(F)F)cc3)c3nc(C4=CCOCC4)nn3c2=O)CC1 [Example 25, 2-(2-(3,6-dihydro-2H-pyran-4-yl)-6-(4-(2-hydroxy-6-methylbenzoyl)piperazin-1-yl)-5-methyl-7-oxo-[1,2,4]triazolo[1,5-a]pyrimidin-4(7H)-yl)-N-(4-(trifluoromethyl)phenyl)acetamide] | 200 | 4 | > 10 |
| CCc1c(N2CCN(C(=O)c3ncnc(C)c3OC)CC2)c(=O)n2nc(C3=CCOCC3)nc2n1CC(=O)Nc1ccc(C(F)(F)F)cc1C [Example 34, 2-(2-(3,6-dihydro-2H-pyran-4-yl)-5-ethyl-6-(4-(5-methoxy-6-methylpyrimidine-4-carbonyl)piperazin-1-yl)-7-oxo-[1,2,4]triazolo[1,5-a]pyrimidin-4(7H)-yl)-N-(2-methyl-4-(trifluoromethyl)phenyl)acetamide] | 5000 | 7 | > 10 |
